From US20250296959A1, “B7-H3 TARGETING PEPTIDES AND CONSTRUCTS THEREOF” (Mariana Oncology Inc., priority 2024, published 2025)
Starred links: 1 amine or outer side, 2 acyl side, 3 side chain; linkers in the order of their positions; H or OH if unused. Positions of bridges follow the written chain, without caps; N, C: chain ends. Non-standard residues stand in square brackets, D forms with d. Residues, ends and D or L forms follow the SMILES beside them. Groups on a side chain read outwards from the residue. *: point of attachment. X4 = O=C(O)CN1CCN(CC(=O)O)CCN([C@H](CCC(=O)*)C(=O)O)CCN(CC(=O)O)CC1; Ala(piperidin-4-yl) = O=C([C@H](CC1CCN([*:3])CC1)N[*:1])[*:2]; DOTA = O=C(O)CN1CCN(CC(=O)O)CCN(CC(=O)*)CCN(CC(=O)O)CC1; Tyr(SO2F) = N[C@@H](Cc1ccc(OS(=O)(=O)F)cc1)C(=O)O; Phe(4-COOH) = N[C@@H](Cc1ccc(C(=O)O)cc1)C(=O)O; Trp(5-F) = N[C@@H](Cc1c[nH]c2ccc(F)cc12)C(=O)O; γGlu = O=C(O)[C@H](CCC(=O)[*:2])N[*:1]; 1Nal = N[C@@H](Cc1cccc2ccccc12)C(=O)O; Ala(4-THP) = N[C@@H](CC1CCOCC1)C(=O)O; Val(3-OH) = CC(C)(O)[C@H](N)C(=O)O; 4Pal = N[C@@H](Cc1ccncc1)C(=O)O; Chg = N[C@H](C(=O)O)C1CCCCC1; Tle = CC(C)(C)[C@H](N)C(=O)O; hLeu = CC(C)CC[C@H](N)C(=O)O; NMeS = CN[C@@H](CO)C(=O)O; Nle = CCCC[C@H](N)C(=O)O; Aze = O=C(O)[C@@H]1CCN1

These compounds were tested against T1, human 4lg B7-H3 (Homo sapiens, UniProt Q5ZPR3) (assay: Affinity determination by surface plasmon resonance (SPR) to 4Ig B7-H3). Conditions: not given.
T1 sequence (Q5ZPR3 29-534): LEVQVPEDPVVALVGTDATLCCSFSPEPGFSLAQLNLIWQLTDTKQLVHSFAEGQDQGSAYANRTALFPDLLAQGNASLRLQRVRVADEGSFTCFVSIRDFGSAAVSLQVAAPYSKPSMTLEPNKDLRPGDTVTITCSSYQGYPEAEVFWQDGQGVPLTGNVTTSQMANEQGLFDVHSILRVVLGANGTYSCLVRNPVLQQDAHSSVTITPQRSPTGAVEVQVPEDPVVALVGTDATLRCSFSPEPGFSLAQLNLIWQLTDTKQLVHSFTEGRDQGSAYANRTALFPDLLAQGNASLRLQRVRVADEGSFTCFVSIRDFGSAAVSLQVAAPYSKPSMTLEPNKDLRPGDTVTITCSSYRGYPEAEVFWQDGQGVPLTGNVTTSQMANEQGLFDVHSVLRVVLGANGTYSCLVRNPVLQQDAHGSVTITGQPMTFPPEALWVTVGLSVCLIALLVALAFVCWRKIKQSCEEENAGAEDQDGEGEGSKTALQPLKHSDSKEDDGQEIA

SMILES	Kd [nM]
CC(=O)N[C@@H](CCC(C)C)C(=O)N[C@@H](Cc1ccc(OS(=O)(=O)F)cc1)C(=O)N[C@H]1CSSC[C@@H](C(=O)N[C@@H](Cc2c[nH]c3ccc(F)cc23)C(=O)N[C@@H](Cc2ccccc2)C(=O)N[C@H](C(=O)N[C@H](CCCCNC(=O)CN2CCN(CC(=O)O)CCN(CC(=O)O)CCN(CC(=O)O)CC2)C(=O)O)C(C)(C)O)NC(=O)[C@H](Cc2ccc(O)cc2)NC(=O)[C@H](C(C)C)NC(=O)[C@H](CC(=O)O)NC(=O)[C@H](CC2CCOCC2)NC(=O)[C@H](CC2CCNCC2)NC(=O)CNC(=O)[C@H](C(C)(C)C)NC1=O [compound 478, Ac-hLeu-FSY-C-Tbg-G-PipAla-ThpA-D-V-Y-C-5FW-F-hydroxyVal-dLys(DOTA)-COOH] (Ac-[hLeu][Tyr(SO2F)]C[Tle]G[Ala(piperidin-4-yl)][Ala(4-THP)]DVYC[Trp(5-F)]F[Val(3-OH)][dK](DOTA)-OH; disulfide 3-11)	10 to 100

Same assay, conditions: SPR KD—25° C., 4Ig B7-H3; 25° C. flow cell temperature

SMILES	Kd [nM]
CCCC[C@H](NC(=O)[C@H](Cc1c[nH]c2ccc(F)cc12)NC(=O)[C@@H]1CSSC[C@H](NC(=O)[C@H](Cc2ccc(O)cc2)NC(=O)[C@H](CCC(C)C)NC(C)=O)C(=O)N[C@@H](C(C)(C)C)C(=O)NCC(=O)N[C@@H](CCCCN)C(=O)N[C@@H](CC2CCOCC2)C(=O)N[C@@H](CC(=O)O)C(=O)N[C@@H](C(C)C)C(=O)N[C@@H](Cc2ccc(O)cc2)C(=O)N1)C(=O)N[C@H](C(=O)N[C@H](CCCCNC(=O)CN1CCN(CC(=O)O)CCN(CC(=O)O)CCN(CC(=O)O)CC1)C(=O)O)[C@@H](C)O [compound 333, Ac-hLeu-Y-C-Tbg-G-K-ThpA-D-V-Y-C-5FW-Nle-Thr-dLys(DOTA)-COOH] (Ac-[hLeu]YC[Tle]GK[Ala(4-THP)]DVYC[Trp(5-F)][Nle]T[dK](DOTA)-OH; disulfide 3-11)	10 to 100
CCCC[C@H](NC(C)=O)C(=O)N[C@@H](Cc1ccc(O)cc1)C(=O)N[C@H]1CSSC[C@@H](C(=O)N[C@@H](Cc2c[nH]c3ccccc23)C(=O)N[C@@H](Cc2ccccc2)C(=O)N[C@H](C(=O)N[C@H](CCCCNC(=O)CN2CCN(CC(=O)O)CCN(CC(=O)O)CCN(CC(=O)O)CC2)C(=O)O)[C@@H](C)O)NC(=O)[C@H](Cc2ccc(O)cc2)NC(=O)[C@H](C(C)C)NC(=O)[C@H](CC(=O)O)NC(=O)[C@H](Cc2ccc(O)cc2)NC(=O)[C@H](CCCCN)NC(=O)CNC(=O)[C@H](C(C)C)NC1=O [compound 28, Ac-Nle-Y-C-V-G-K-Y-D-V-Y-C-W-F-Thr-dLys(DOTA)-COOH] (Ac-[Nle]YCVGKYDVYCWFT[dK](DOTA)-OH; disulfide 3-11)	1 to 10
CC(=O)N[C@@H](CCC(C)C)C(=O)N[C@@H](Cc1ccc(O)cc1)C(=O)N[C@H]1CSSC[C@@H](C(=O)N[C@@H](Cc2cccc3ccccc23)C(=O)N[C@@H](Cc2ccccc2)C(=O)N2CCC[C@H]2C(=O)N[C@H](CCCCNC(=O)CC[C@H](NC(=O)CN2CCN(CC(=O)O)CCN(CC(=O)O)CCN(CC(=O)O)CC2)C(=O)O)C(N)=O)NC(=O)[C@H](Cc2ccc(O)cc2)NC(=O)[C@H](C(C)C)NC(=O)[C@H](CC(=O)O)NC(=O)[C@H](CC2CCOCC2)NC(=O)[C@H](CCCCN)NC(=O)CNC(=O)[C@H](C(C)(C)C)NC1=O [compound 274, Ac-hLeu-Y-C-Tbg-G-K-ThpA-D-V-Y-C-1Nal-F-Pro-dLys(gE-DOTA)-CONH2] (Ac-[hLeu]YC[Tle]GK[Ala(4-THP)]DVYC[1Nal]FP[dK]([γGlu-DOTA])-NH2; disulfide 3-11)	< 1

Next, values leading:

Kd [nM]	SMILES
100 to 300	CC(=O)N[C@@H](CCC(C)C)C(=O)N[C@H](C(=O)N[C@H]1CSSC[C@@H](C(=O)N[C@@H](Cc2c[nH]c3ccc(F)cc23)C(=O)N[C@@H](Cc2ccccc2)C(=O)N(C)[C@@H](CO)C(=O)N[C@H](CCCCNC(=O)CN2CCN(CC(=O)O)CCN(CC(=O)O)CCN(CC(=O)O)CC2)C(N)=O)NC(=O)[C@H](Cc2ccc(O)cc2)NC(=O)[C@H](C(C)C)NC(=O)[C@H](CC(=O)O)NC(=O)[C@H](Cc2ccc(O)cc2)NC(=O)[C@H](CC2CCNCC2)NC(=O)CNC(=O)[C@H](C(C)C)NC1=O)C1CCCCC1 [compound 212, Ac-hLeu-Chg-C-V-G-PipAla-Y-D-V-Y-C-5FW-F-NMeSer-dLys(DOTA)-CONH2] (Ac-[hLeu][Chg]CVG[Ala(piperidin-4-yl)]YDVYC[Trp(5-F)]F[NMeS][dK](DOTA)-NH2; disulfide 3-11)
10 to 100	CC(=O)N[C@@H](CCC(C)C)C(=O)N[C@@H](Cc1ccc(O)cc1)C(=O)N[C@H]1CSSC[C@@H](C(=O)N[C@@H](Cc2c[nH]c3ccc(F)cc23)C(=O)N[C@@H](Cc2ccc(C(=O)O)cc2)C(=O)N[C@H](C(=O)N[C@H](CCCCNC(=O)CN2CCN(CC(=O)O)CCN(CC(=O)O)CCN(CC(=O)O)CC2)C(N)=O)[C@@H](C)O)NC(=O)[C@H](Cc2ccc(O)cc2)NC(=O)[C@H](C(C)C)NC(=O)[C@H](CC(=O)O)NC(=O)[C@H](Cc2ccc(O)cc2)NC(=O)[C@H](CCCCN)NC(=O)CNC(=O)[C@H](C(C)C)NC1=O [compound 166, Ac-hLeu-Y-C-V-G-K-Y-D-V-Y-C-5FW-4COOHPhe-Thr-dLys(DOTA)-CONH2] (Ac-[hLeu]YCVGKYDVYC[Trp(5-F)][Phe(4-COOH)]T[dK](DOTA)-NH2; disulfide 3-11)
1 to 10	COc1ccc(C[C@@H]2NC(=O)[C@H](C(C)C)NC(=O)[C@H](CC(=O)O)NC(=O)[C@H](Cc3ccncc3)NC(=O)[C@H](CCCCNC(=O)CN3CCN(CC(=O)O)CCN(CC(=O)O)CCN(CC(=O)O)CC3)NC(=O)CNC(=O)[C@H](C(C)C)NC(=O)[C@@H](NC(=O)[C@H](Cc3ccc(O)cc3)NC(=O)[C@H](CCC(C)C)NC(C)=O)CSSC[C@@H](C(=O)N[C@@H](Cc3c[nH]c4ccc(F)cc34)C(=O)N[C@@H](Cc3ccccc3)C(=O)N3CCC[C@H]3C(N)=O)NC2=O)cc1 [compound 249, Ac-hLeu-Y-C-V-G-Lys(DOTA)-4PyA-D-V-OMeTyr-C-5FW-F-Pro-CONH2] (Ac-[hLeu]YCVGK(DOTA)[4Pal]DVY(Me)C[Trp(5-F)]FP-NH2; disulfide 3-11)
1 to 10	CC(=O)N[C@@H](CCC(C)C)C(=O)N[C@@H](Cc1ccc(O)cc1)C(=O)N[C@H]1CSSC[C@@H](C(=O)N[C@@H](Cc2c[nH]c3ccc(F)cc23)C(=O)N[C@@H](Cc2ccccc2)C(=O)N[C@H](C(N)=O)C(C)(C)O)NC(=O)[C@H](Cc2ccc(O)cc2)NC(=O)[C@H](C(C)C)NC(=O)[C@H](CC(=O)O)NC(=O)[C@H](CC2CCNCC2)NC(=O)[C@H](CCCCNC(=O)CN2CCN(CC(=O)O)CCN(CC(=O)O)CCN(CC(=O)O)CC2)NC(=O)CNC(=O)[C@H](C(C)C)NC1=O [compound 202, Ac-hLeu-Y-C-V-G-Lys(DOTA)-PipAla-D-V-Y-C-5FW-F-hydroxyVal-CONH2] (Ac-[hLeu]YCVGK(DOTA)[Ala(piperidin-4-yl)]DVYC[Trp(5-F)]F[Val(3-OH)]-NH2; disulfide 3-11)

Same assay, conditions: SPR KD—37° C., 4Ig B7-H3; 37° C. flow cell temperature

SMILES	Kd [nM]
CC(=O)N[C@@H](CCC(C)C)C(=O)N[C@@H](Cc1ccc(O)cc1)C(=O)N[C@H]1CSSC[C@@H](C(=O)N[C@@H](Cc2c[nH]c3ccc(F)cc23)C(=O)N[C@@H](Cc2ccccc2)C(=O)N[C@H](C(=O)N[C@H](CCCCNC(=O)CN2CCN(CC(=O)O)CCN(CC(=O)O)CCN(CC(=O)O)CC2)C(=O)O)C(C)(C)O)NC(=O)[C@H](Cc2ccc(O)cc2)NC(=O)[C@H](C(C)C)NC(=O)[C@H](CC(=O)O)NC(=O)[C@H](CC2CCOCC2)NC(=O)[C@@H]2CCN2C(=O)CNC(=O)[C@H](C(C)(C)C)NC1=O [compound 375, Ac-hLeu-Y-C-Tbg-G-Aze-ThpA-D-V-Y-C-5FW-F-hydroxyVal-dLys(DOTA)-COOH] (Ac-[hLeu]YC[Tle]G[Aze][Ala(4-THP)]DVYC[Trp(5-F)]F[Val(3-OH)][dK](DOTA)-OH; disulfide 3-11)	1 to 10
CCCC[C@H](NC(C)=O)C(=O)N[C@@H](Cc1ccc(O)cc1)C(=O)N[C@H]1CSSC[C@@H](C(=O)N[C@@H](Cc2c[nH]c3ccccc23)C(=O)N[C@@H](Cc2ccccc2)C(=O)N[C@H](C(=O)N[C@H](CCCCNC(=O)CN2CCN(CC(=O)O)CCN(CC(=O)O)CCN(CC(=O)O)CC2)C(=O)O)[C@@H](C)O)NC(=O)[C@H](Cc2ccc(O)cc2)NC(=O)[C@H](C(C)C)NC(=O)[C@H](CC(=O)O)NC(=O)[C@H](Cc2ccc(O)cc2)NC(=O)[C@H](CCCCN)NC(=O)CNC(=O)[C@H](C(C)C)NC1=O [compound 28, Ac-Nle-Y-C-V-G-K-Y-D-V-Y-C-W-F-Thr-dLys(DOTA)-COOH] (Ac-[Nle]YCVGKYDVYCWFT[dK](DOTA)-OH; disulfide 3-11)	1 to 10

Now from value to compound:

Kd [nM]	SMILES
1 to 10	CC(=O)N[C@@H](CCC(C)C)C(=O)N[C@@H](Cc1ccc(O)cc1)C(=O)N[C@H]1CSSC[C@@H](C(=O)N[C@@H](Cc2c[nH]c3ccc(F)cc23)C(=O)N[C@@H](Cc2ccccc2)C(=O)N[C@H](C(N)=O)C(C)(C)O)NC(=O)[C@H](Cc2ccc(O)cc2)NC(=O)[C@H](C(C)C)NC(=O)[C@H](CC(=O)O)NC(=O)[C@H](CC2CCOCC2)NC(=O)[C@H](CCCCN)NC(=O)CNC(=O)[C@H](C(C)(C)C)NC1=O [compound 404, Ac-hLeu-Y-C-Tbg-G-K-ThpA-D-V-Y-C-5FW-F-hydroxyVal-CONH2] (Ac-[hLeu]YC[Tle]GK[Ala(4-THP)]DVYC[Trp(5-F)]F[Val(3-OH)]-NH2; disulfide 3-11)
< 1	CC(=O)N[C@@H](CCC(C)C)C(=O)N[C@@H](Cc1ccc(O)cc1)C(=O)N[C@H]1CSSC[C@@H](C(=O)N[C@@H](Cc2c[nH]c3ccc(F)cc23)C(=O)N[C@@H](Cc2ccccc2)C(=O)N[C@H](C(=O)N[C@H](CCC(=O)O)C(N)=O)C(C)(C)O)NC(=O)[C@H](Cc2ccc(O)cc2)NC(=O)[C@H](C(C)C)NC(=O)[C@H](CC(=O)O)NC(=O)[C@H](CC2CCN(C(=O)CC[C@H](C(=O)O)N3CCN(CC(=O)O)CCN(CC(=O)O)CCN(CC(=O)O)CC3)CC2)NC(=O)[C@H](CC2CCNCC2)NC(=O)CNC(=O)[C@H](C(C)(C)C)NC1=O [compound 460, Ac-hLeu-Y-C-Tbg-G-PipAla-Pip(R-DOTAGA)Ala-D-V-Y-C-5FW-F-hydroxyVal-dGlu-CONH2] (Ac-[hLeu]YC[Tle]G[Ala(piperidin-4-yl)][Ala(piperidin-4-yl)](X4)DVYC[Trp(5-F)]F[Val(3-OH)][dE]-NH2; disulfide 3-11)
